Values of other authors, collected in patent US7610153B2, “Multi-drug titration and evaluation” (Virginia Commonwealth University, priority 2002, dated 2009).

Conditions: literature

hypoglycemia: does not cause hypoglycemia
Compound: CN(C)C(=N)N=C(N)N [metformin]
decrease in fasting and postprandial glycemia (type 2 diabetes): 60 to 70 mg/dL
